In patent publication US4034082A, “Method to prevent reproduction in warm-blooded female animals with nonapeptides” (Abbott Laboratories, priority 1976, dated 1977):

Legend:
[1] = system: Adult, female rats, mated; test: Prevention of implantation/pregnancy in mated rats (Example 2); type: in vivo, rat; conditions: 10 μg s.c. b.i.d., day 3 to day 6 of gestation; for fate of the implantation sites: sacrificed day 13; for animals having implantation sites: sacrificed day 13, group of 9 (control: 8 of 9 pregnant); for total implantation sites found in the uteri of the group: sacrificed day 13, groups of 8 or 9 (control: 87 implantation and 3 resorbed sites)
Method: Adult, female rats weighing an average of 200 g. were mated and then randomly divided into groups of 8 and 9 rats. In all animals, mating was determined by the presence of sperms in the vaginal opening. In all animals, subcutaneous treatment was started on day 3 of gestation and continued until day 6 with 10 μg of the above compound, b.i.d. in an aqueous vehicle containing 0.1% bovine serum albumin and 0.9% sodium chloride at a concentration of 0.02% (wt./vol.). All animals were sacrificed on day 13 and checked for toxic manifestations, fetuses or viable implants.
In the first of four groups (control), the animals received the above vehicle only. […] Upon sacrifice, a total of 87 implantation and 3 resorbed sites was found in the uteri.

Pregnant rabbits = test: Fetal viability in pregnant rabbits after a single injection (Example 4); type: in vivo, rabbit; conditions: single s.c. injection of 12.5 μg/kg on day 14 of gestation, sacrificed day 28 (control: 7 of 8 implants viable)
Method: Pregnant rabbits were given single subcutaneous injections of 12.5 μg/kg of the compounds used in Example 2 by the route and vehicle shown there on day 14 of gestation. […] In all instances, the animals were sacrificed on day 28 of gestation.

rats = test: Reversal of the anti-implantation effect by exogenous estradiol in treated rats; type: in vivo, rat; conditions: rats treated days 2-6 of gestation, estradiol 0.1 μg s.c. in sesame oil on days 4 and 5; for animals in which implantation takes place when estradiol is co-administered: of 8 animals

SMILES | fate of the implantation sites [1] | animals showing no signs of implantation ([1]; sacrificed day 13, group of 9) | animals having implantation sites [1] | total implantation sites found in the uteri of the group [1] | viable fetuses per implants (average) (Pregnant rabbits) | viability of embryos when estradiol is co-administered (rats) | animals in which implantation takes place when estradiol is co-administered (rats)
CCNC(=O)[C@@H]1CCCN1C(=O)[C@H](CCCNC(=N)N)NC(=O)[C@H](CC(C)C)NC(=O)[C@@H](Cc1c[nH]c2ccccc12)NC(=O)[C@H](Cc1ccc(O)cc1)NC(=O)[C@H](CO)NC(=O)[C@H](Cc1c[nH]c2ccccc12)NC(=O)[C@H](Cc1c[nH]cn1)NC(=O)[C@@H]1CCC(=O)N1 [Compound A] | all resorbed | Seven | two | 25 | one viable fetus per 7 implants | substantially only viable embryos | 3
CCNC(=O)[C@@H]1CCCN1C(=O)[C@H](CCCNC(=N)N)NC(=O)[C@H](CC(C)C)NC(=O)[C@@H](Cc1ccc(O)cc1)NC(=O)[C@H](Cc1ccc(O)cc1)NC(=O)[C@H](CO)NC(=O)[C@H](Cc1c[nH]c2ccccc12)NC(=O)[C@H](Cc1c[nH]cn1)NC(=O)[C@@H]1CCC(=O)N1 [Compound B] | all 22 counted sites had been resorbed | – | 2 | 22 | one viable fetus per 7 implants | substantially only viable embryos | 3
CCNC(=O)[C@@H]1CCCN1C(=O)[C@H](CCCNC(=N)N)NC(=O)[C@H](CC(C)C)NC(=O)[C@@H](Cc1ccccc1)NC(=O)[C@H](Cc1ccc(O)cc1)NC(=O)[C@H](CO)NC(=O)[C@H](Cc1c[nH]c2ccccc12)NC(=O)[C@H](Cc1c[nH]cn1)NC(=O)[C@@H]1CCC(=O)N1 [Compound C] | resorbed | – | – | single | one viable fetus per 7 implants | substantially only viable embryos | 3
